Measured values reported in patent US20110028566A1, “COMPOSITIONS AND PRODUCTS CONTAINING CYCLOALIPHATIC DIOL ANTIMICROBIAL AGENTS AND METHODS OF USING THE COMPOSITIONS AND PRODUCTS” (EASTMAN CHEMICAL COMPANY, priority 2009, published 2011).
“Also recorded” adds a separate entry of the source.

Key:
P. aeruginosa = assay: MIC comparison of 1,1- and 1,4-CHDM, 96-well plates; type: cell-based; settings: for MIC Day 1: 24 H; for MIC Day 2: 48 H; for MIC Day 3: 72 H
Description: (§1) The antimicrobial activities of 1,4-cyclohexanedimethanol (1,4-CHDM) and 1,1-cyclohexanedimethanol (1,1-CHDM) have been determined. […] MICs were individually calculated for three consecutive days with both 1,1-cyclohexanedimethanol and the 31% cis:69% trans mixture of 1,4-cyclohexanedimethanol. Both compounds were evaluated against a panel of five strains of microorganisms.
(§2) Strains P. aeruginosa, C. albicans, E. coli, A. niger and S. aureus were purchased from the American Type Culture Collection (Manassas, Va.). NUNC flat bottom polystyrene 96 well microtiter plates (NUNC Cat# 269787), and 17×100 mm culture tubes (VWR Cat# 60818-703) were purchased from VWR International, LLC (West Chester, Pa.). Eastman CHDM-D90 and 1,1-CHDM (>99.7% by GC and verified by NMR) were provided by Eastman Chemical Company (Kingsport, Tenn.). All bacterial cultures were grown in BD BBL trypticase soy broth, and all fungal cultures were grown in sabourand dextrose broth purchased from VWR International, LLC (West Chester, Pa.). Absorbance measurements were taken with a TECAN GENios Pro microplate reader.
(§3) A small loopful of inoculum was transferred from a freshly streaked agar plate of each strain to 5 ml of sterile media in a 17×100 mm culture tube. The bacteria were incubated for 20-28 hours and C. albicans for 44-52 hours.
(§4) Stock solutions were prepared for each isomer in the corresponding growth media at a concentration of 5% w/v (1,4-CHDM) or 2.25% w/v (1,1-CHDM). Serial dilutions were prepared with a dilution ratio of 1:1.3333 such that one log range was covered with nine dilutions.
(§5) Two-hundred microliters of each CHDM concentration was transferred into 4 wells of a sterile 96-well plate. Four extra wells of the highest concentration were filled for the uninoculated high-level controls. Eight additional wells were filled with only sterile broth to serve as negative and positive controls. The last well of each CHDM isomer dilution was left uninoculated to serve as controls for background turbidity associated with test compounds. Plates with bacteria or C. albicans were inoculated with 2 μl of seed culture for final concentration of roughly 10^6 CFU/ml for the bacteria and 10^5 CFU/ml for the C. albicans. Plates with A. niger were inoculated with 2 μl of spore suspension prepared above.
(§6) Each plate was covered and incubated at the appropriate temperature and turbidity as a measure of cell density was determined via absorbance measurement at 612 nm using a microplate reader. Measurements were taken at 24, 48 and 72 hours for each plate. The raw data was exported into an Excel spreadsheet and the MIC values were determined and expressed as wt %. The absorbance of each inoculated CHDM well was retrieved by first subtracting out the average reading for each uninoculated well, then by comparison to a positive threshold to determine positive or negative status for growth. The positive threshold was calculated by multiplication of the average absorbance for the inoculated media-only wells by 0.05. The MIC was determined as the lowest test concentration resulting in all three replicate wells displaying values below the positive threshold.

S. aureus = assay: as above; type: cell-based; settings: for MIC Day 1: 24 H; for MIC Day 2: 48 H; for MIC Day 3: 72 H
Description: as §1, §2, §3, §4, §5, §6

E. coli = assay: as above; type: cell-based; settings: for MIC Day 1: 24 H; for MIC Day 2: 48 H; for MIC Day 3: 72 H
Description: as §1, §2, §3, §4, §5, §6

C. albicans = assay: as above; type: cell-based; settings: for MIC Day 1: 24 H; for MIC Day 2: 48 H; for MIC Day 3: 72 H
Description: as §1, §2, §3, §4, §5, §6

A. niger = assay: as above; type: cell-based; settings: for MIC Day 1: 24 H; for MIC Day 2: 48 H; for MIC Day 3: 72 H
Description: as §1, §2
A. niger was cultured on sabourand dextrose agar plates until a heavy concentration of black spores were visibly apparent. Spores were harvested from the plate by suspension in 3 ml of sabourand dextrose broth utilizing a sterile plastic spreader and sterile transfer pipette.
as §4, §5, §6

[1] = Solubility in aqueous growth media; type: physicochemical
Text: Final results have been summarized below in Table 59.

[2] = tested on: panel of five strains of microorganisms; assay: MIC comparison of 1,1- and 1,4-CHDM (Example 6), statements over the panel; type: cell-based; settings: MIC at 24, 48 and 72 hours
Description: as §1
Strains P. aeruginosa, C. albicans, E. coli, A. niger and S. aureus were purchased from the American Type Culture Collection (Manassas, Va.). […] Absorbance measurements were taken with a TECAN GENios Pro microplate reader. […]
as §6, with “Measurements were taken at 24, 48 and 72 hours for each plate.” left out

[3] = tested on: Aspergillus niger ATCC 16404; assay: MIC determination and synergy testing (Kull synergy index), microplate; type: cell-based; settings: A. niger; plate 154C; day 3; MP and CHDM
Description: (§7) The test cultures are listed in Table 7 along with the incubation temperatures used for growth and minimum inhibitory concentration (MIC) testing. […] C. albicans was cultured in Sabouraud dextrose broth (SDB) for approximately 44-52 hours for preparation of inoculum. A. niger was cultured on Sabouraud dextrose agar (SDA) for 3-4 days until there was confluent growth and visible spore formation. Spores were harvested from the SDA plates by flooding the surface of the plate with 5-10 mL of phosphate-buffered saline (PBS) and gently spreading the liquid across the surface of the plate with a sterile T-shaped plastic spreader (Copan Diagnostics) until there was a well-mixed suspension of spores. The resulting spore suspension was collected using a serological pipette and stored at 2-8° C. until use.
(§8) Inoculum concentration was determined by dilution plating of the cultures or spore suspension. A serial dilution in PBS was made to 10^−8 for the bacterial cultures or 10^−5 for the fungal cultures. Fifty or 100 μL of the final dilution was spread on two Trypticase-soy agar (TSA) plates for bacteria or two SDA plates for fungi. After 24 to 48 hours plates were counted and the concentrations used in each experiment were calculated.
The A. niger spore suspensions were concentrated to a level of 1-2×10^8 spores/mL by centrifugation and resuspension in a portion of the resulting supernatant.
(§9) The antimicrobial agents tested for synergy along with the respective diluents and working stock solution concentrations are shown below. For determination of MIC ranges, individual antimicrobial agent stock solutions were added to sterile medium to yield the highest level test concentrations, and then serially diluted in the medium to prepare the range of test concentrations. For synergy testing individual test concentrations were prepared in sterile medium, and then blended to form the desired combinations.
(§10) MICs were determined using a high-throughput microplate method. Individual antimicrobial agents were added to TSB (pH 7.3) for bacterial testing or SDB (pH 5.6) for fungal testing at the highest concentration to be tested. A serial dilution series was prepared at a dilution ratio of 1:1.3333 such that a one log range was covered in nine dilutions. Two-hundred microliters of the diluted antimicrobial agents were dispensed into four wells each of a sterile, 96-well, flat-bottom microplate (Nalge Nunc International). Four additional wells of the highest concentration were dispensed to serve as uninoculated high-level controls. Eight additional wells containing only broth medium were also prepared, four to serve as negative controls and four as positive controls. Three wells of each antimicrobial agent dilution were inoculated with one of the test strains in Table 7. The final well of each antimicrobial agent dilution was left uninoculated to serve as a control (and means of compensating) for any absorbance/turbidity due to the test compounds.
Microplates were inoculated using the cultures or spore suspensions prepared as described above. The S. aureus cultures were used undiluted, while the E. coli and P. aeruginosa cultures were used either undiluted or after a 1:2 dilution in sterile TSB. The C. albicans cultures were used either undiluted or following a 2-fold concentration by centrifugation. One of two means of inoculation was used to deliver a final concentration of approximately 10^5 colony-forming units (CFU)/mL of C. albicans, 10^5 spores/mL of A. niger, or 10^6 CFU/mL of bacteria. The primary method used a stainless steel pin replicator (Nalge Nunc International) mounted on a hand-operated bench-top press (Schmidt Technology Corporation) fitted with a custom-built microplate holder to dispense one microliter of each inoculum from a “master” plate containing 50-100 μL of culture into the wells of the test plate. The pin replicator was sterilized before and between inoculations by immersing in ethanol and flaming. […]

[4] = tested on: Staphylococcus aureus ATCC 25923; assay: as above; type: cell-based; settings: MP: MIC alone (QB) or conc. in combination with CHDM (b), plate 166D
Description: as §7, §8, §9, §10
(§11) Microplates were inoculated using the cultures or spore suspensions prepared as described above. The S. aureus cultures were used undiluted, while the E. coli and P. aeruginosa cultures were used either undiluted or after a 1:2 dilution in sterile TSB. The C. albicans cultures were used either undiluted or following a 2-fold concentration by centrifugation. One of two means of inoculation was used to deliver a final concentration of approximately 10^5 colony-forming units (CFU)/mL of C. albicans, 10^5 spores/mL of A. niger, or 10^6 CFU/mL of bacteria. The primary method used a stainless steel pin replicator (Nalge Nunc International) mounted on a hand-operated bench-top press (Schmidt Technology Corporation) fitted with a custom-built microplate holder to dispense one microliter of each inoculum from a “master” plate containing 50-100 μL of culture into the wells of the test plate. The pin replicator was sterilized before and between inoculations by immersing in ethanol and flaming. The alternative method of inoculation was by directly pipetting 20 μL of a 1:20 dilution of each culture or spore suspension into the appropriate wells of the test plates.

[5] = tested on: Pseudomonas aeruginosa ATCC 27853; assay: as above; type: cell-based; settings: MP: MIC alone (QB) or conc. in combination with CHDM (b); plate 146E; day 1
Description: as §7, §8, §9, §10, §11

Candida albicans = assay: Test for adequate preservation in skin cream formulation (microorganism counts); type: cell-based; settings: skin cream emulsion pH 6.75; concentration in label
Description: (§12) A test for adequate preservation was carried out in accordance with the European Pharmacopea (6.0) and United States Pharmacopea (5.1). The testing consisted of the inoculation of a skin cream formulation serving as an emulsion substrate. The skin cream formulation having a pH of 6.75 was as follows: […]
(§13) This skin cream was the emulsion substrate, which formed the base for all further experimentation.
(§14) For Examples 3.1 through 3.10, 390.0 g cream were weighed into a 600-ml beaker. The cream was stirred at room temperature while adding the ingredients specified in Table 51. Each sample was stirred for 2 hours, then placed in the refrigerator until inoculated.
(§15) For Examples 3.11 and 3.12, 179.4 g cream were weighed into a 400-ml beaker. The cream was stirred at room temperature while adding the specified ingredients.
(§16) The samples of Examples 3.1 through 3.10 were challenged with specific organisms (see Table 51) to produce a contamination of between 1.0×10^5 cfu/g and 1.0×10^6 cfu/g. The actual inoculation counts resulting from these challenges were immediately determined by diluting in sterile buffered water and (spread plate method) plating for enumeration.
(§17) Challenge organisms were prepared in Mueller-Hinton broth, allowed to grow for 72 hours at 35° C.+/−2° C., centrifuged at 2500 rpm for 5 minutes, and the supernatant broth was removed. The microbial pellet was then re-diluted with sterile buffered water to a turbidity that matched previous 1.0×10^8 cfu/g concentrations of that organism's specific growth curve.
(§18) The test emulsions were maintained within a specific temperature range optimal for the organisms; 35° C.+/2° C. for the bacteria and 22° C.+/−2° C. for the fungi, for the first three days. They were kept at ambient room temperature for the subsequent time periods.
(§19) Subculture samples of approximately 1 gram were taken for counts at 7, 14, and 30 days and incubated under optimal conditions and nutrition for no less than 5 days. Subcultures were diluted 1:2, 1:10, 1:100, . . . , 1:10,000 and plated using the spread plate method onto Plate Count Agar and onto SAB Dextrose Agar for the Candida and Aspergillus species; and incubated as follows: 35° C.+/−2° C. for the Plate Count Agar and 22° C.+/−2° C. for the SAB Dextrose plates of Candida albicans and Aspergillus niger. Negative results were not reported before 7 days incubation, and counts were performed after no less than 5 days incubation. Because of the high viscosity of the test emulsion, at least a 1:2 dilution was required to perform the spread plate subcultures. 0-30 counts represent a 1 to 2 dilution, numbers […] a 1:10 dilution; and the rest represent dilutions of 1:100, 1:1000, or 1:10,000. […]

Aspergillus niger = assay: as above; type: cell-based; settings: skin cream emulsion pH 6.75; concentration in label
Description: as §12, §13, §14, §15, §16, §17, §18, §19

SMILES | MIC Day 1 (P. aeruginosa) [wt %] | MIC Day 2 (P. aeruginosa) [wt %] | MIC Day 3 (P. aeruginosa) [wt %] | MIC Day 1 (S. aureus) [wt %] | MIC Day 2 (S. aureus) [wt %] | MIC Day 3 (S. aureus) [wt %] | MIC Day 1 (E. coli) [wt %] | MIC Day 2 (E. coli) [wt %] | MIC Day 3 (E. coli) [wt %] | MIC Day 1 (C. albicans) [wt %] | MIC Day 2 (C. albicans) [wt %] | MIC Day 3 (C. albicans) [wt %] | MIC Day 1 (A. niger) [wt %] | MIC Day 2 (A. niger) [wt %] | MIC Day 3 (A. niger) [wt %] | further results
OCC1(CO)CCCCC1 [1,1 CHDM] | 1.26 | 1.26 | 1.26 | 2.25 | 2.25 | 2.25 | 1.26 | 1.26 | 1.26 | 2.25 | 2.25 | 2.25 | >2.25 | >2.25 | >2.25 | 
OCC1(CO)CCCCC1 [1,1-CHDM, 1,1-cyclohexanedimethanol] |  |  |  |  |  |  |  |  |  |  |  |  |  |  |  | Solubility [1]: ≤ 2.25 % (w/v); Antimicrobial efficacy (MIC) compared with 1,4-CHDM (in words) [2]: significant improvement in efficacy over 1,4-CHDM; also recorded: lower MIC values; also recorded: improved efficacy over 1,4-CHDM; Antimicrobial efficacy (MIC) compared with 1,4-CHDM (in words) ([2]; listed as 1,1-cyclohexanedimethanol): measurable increase in antimicrobial efficacy over that of 1,4-cyclohexanedimethanol; also recorded: Antimicrobial efficacy increased against four of the five test organisms
OCC1CCC(CO)CC1 (stereo not shown) [1,4 CHDM] | 1.58 | 1.58 | 2.11 | 3.75 | 3.75 | 3.75 | 1.58 | 1.58 | 1.58 | 3.75 | 4.99 | >5.0 | >5.0 | 3.75 | 3.75 | 
COC(=O)c1ccc(O)cc1 [MP, Methylparaben, reference compound] |  |  |  |  |  |  |  |  |  |  |  |  |  |  |  | QB/b: concentration of MP (MIC alone, or in the combination at an inhibitory concentration) [3]: 0.050 weight percent; SI (synergy index) [3]: 1.00; QB/b ([4]; day 1): 0.23; QB/b ([4]; day 2): 0.23; QB/b [5]: 0.14; Antimicrobial activity against Candida albicans in skin cream (in words) (Candida albicans): not at this low concentration; Antimicrobial activity against Aspergillus niger in skin cream (in words) (Aspergillus niger): not at this low concentration
